The term EC50 denotes the concentration giving half of the maximal effect.

Among the data in patent US11427586B2, “1,2,4-oxadiazole derivatives as liver X receptor agonists” (NOVARTIS AG, priority 2019, dated 2022) are Emax and EC50 values, retold here.

Test [1] has as its system SCD1. Briefly: Measurement of SCD1 expression in SZ95-SCD1-HiBit cells (HiBiT assay). The conditions noted are these: Homo sapiens; for EC50: read-out: HiBit EC50. Type of test: cell-based. The text has this: Measurement of SCD1 Expression in SZ95-SCD1-HiBit Cells
SCD1 expression levels in SZ95 cells were quantitated using the HiBiT system (Promega) in which a small peptide sequence (SmBiT) with a larger protein (LgBiT) reconstitutes luciferase activity and can generate a luminescent signal used for quantitation. SZ95-SCD1-HiBit cells were generated by editing the SCD1 gene of SZ95 cells resulting in the addition of an 8 amino acid linker sequence (gssggssg, SEQ ID NO:1) followed by an 11-amino acid SmBiT sequence (vsgwrlfkkis, SEQ ID NO:2) at the carboxy-terminus of the SCD1 protein. The gRNA targeting sequence used was […] (SEQ ID NO: 3) and the SCD1 insertion oligonucleotide encoding the SmBiT sequence was:
SZ95-SCD1-HiBit cells were seeded in 384-well cell culture white plates at a density of 3000 cells/30 μl. Water was added to edge wells to avoid evaporation. Cells were incubated in a humidified incubator with 5% CO2 at 37° C. overnight. Tested compounds were diluted at a ratio of 1:3 in DMSO using an Agilent BRAVO Automated Liquid Handling Platform and, after further serial dilutions, added to cells at final concentrations starting from 18 μM. 2-(3-(3-((2-chloro-3-(trifluoromethyl)benzyl)(2,2-diphenylethyl)amino)propoxy)phenyl)acetic acid was used as a reference compound in each plate. Cells in the assay plate were incubated in a humidified incubator with 5% CO2 at 37° C. for 48 h.
The assay plates were removed from the incubator and allowed to equilibrate to room temperature. Nano-Glo® HiBiT Detection Reagent (Promega; a mixture of Nano-Glo HiBiT Detection Buffer, Nano-Glo HiBiT Detection Substrate, and LgBiT protein, according to the manufacturer's instructions) was added into assay plates, at a volume equal to cell culture medium in each well. Plates were placed on an orbital shaker at a speed of 300-600 rpm for 10 min at room temperature, and read on an EnVision Plate Reader using luminescence detection with a 1 second read time.
The assay measures the increase in SCD1 protein production in vitro. Amax refers to the percent EC50 of the tested compound compared to a reference compound, 2-(3-(3-((2-chloro-3-(trifluoromethyl)benzyl)(2,2-diphenylethyl)amino)propoxy)phenyl)acetic acid.
(The HiBiT peptide binds its large partner to form an active luciferase.)

Test [2] relates to SZ95 sebocytes. Briefly: Sentinel Lipid Assay (SLA), desaturation index in SZ95 sebocytes. Type of test: cell-based. The conditions noted are these: Homo sapiens, 72 h; for EC50: read-out: SLA EC50. In outline: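 SZ95 human sebocytes on fibronectin-coated plates, dosed 72 h at 37 °C with 1:3 dilutions from 10 μM; lipids extracted with deuterated triglyceride internal standards and quantified by LC-MS/MS (MRM) as 11 sentinel lipids. Desaturation index from elastic-net coefficients, normalized to DMSO; Amax relative to a reference LXR agonist.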

Where [3] appears, read: 48 h, normalized Amax based on the reference compound Amax of 100%, read-out: HiBit Normalized Amax.
The mark [4] stands for this setting: SZ95-SCD1-HiBit cells, 48 h, SCD1 protein production, luminescence, initial dilution 1:3 in DMSO.
Setting [5] is: SZ95-SCD1-HiBit cells, 48 h, compared to reference compound, read-out: HiBit Amax.
Where [6] appears, read: normalized Amax based on the reference compound Amax of 100%, read-out: SLA Normalized Amax.
Setting [7] is: SZ95 cells, desaturation index, lowest dose used 4.6 nM.
Setting [8] is: SZ95 cells, compared to reference compound, read-out: SLA Amax.

Like-named read-outs stand apart in the source and are kept apart here.

For `CC1(C)C(=O)N(Cc2nc(-c3ccc(Oc4ccccc4S(=O)(=O)CC4CCCO4)c(C(F)(F)F)c3)no2)C(=O)N1CCN1CCOCC1` (stereo not drawn) [Compound 64, 5,5-dimethyl-1-(2-morpholinoethyl)-3-((3-(4-(2-(((tetrahydrofuran-2-yl)methyl)sulfonyl)phenoxy)-3-(trifluoromethyl)phenyl)-1,2,4-oxadiazol-5-yl)methyl)imidazolidine-2,4-dione], the Emax in test [1] (48 h, read-out: HiBit Amax) amounted to 97.9%; in test [1] (48 h, read-out: HiBit Normalized Amax), 103%; in test [2] (read-out: SLA Amax), 154%; in test [2] (read-out: SLA Normalized Amax), 160%. In addition, the EC50 in test [1] (48 h) was 0.063 nM; in test [2], ≤ 4.6 nM.

Take `CC(C)CS(=O)(=O)c1ccccc1Oc1ccc(-c2noc(CN3C(=O)N(CCN4CCOCC4)C4(CCNCC4)C3=O)n2)cc1C(F)(F)F` [Compound 9, 3-((3-(4-(2-(isobutylsulfonyl)phenoxy)-3-(trifluoromethyl)phenyl)-1,2,4-oxadiazol-5-yl)methyl)-1-(2-morpholinoethyl)-1,3,8-triazaspiro[4.5]decane-2,4-dione]: the Emax came out at 98.1% in test [1] (setting [3]), 93.3% in test [1] (setting [5]), 147% in test [2] (setting [6]) and 142% in test [2] (setting [8]). The EC50 in test [1] (setting [4]) was 3.3 nM; in test [2] (setting [7]), ≤ 4.6 nM.

On to `CC1(C)C(=O)N(Cc2nc(-c3ccc(Oc4ccccc4S(=O)(=O)CC4CCOC4)c(C(F)(F)F)c3)no2)C(=O)N1CCN1CCOCC1` (stereo not drawn) [Compound 38, 5,5-dimethyl-1-(2-morpholinoethyl)-3-((3-(4-(2-(((tetrahydrofuran-3-yl)methyl)sulfonyl)phenoxy)-3-(trifluoromethyl)phenyl)-1,2,4-oxadiazol-5-yl)methyl)imidazolidine-2,4-dione], for which the Emax in test [1] (setting [3]) came to 75.8%; in test [1] (setting [5]), 72.1%; in test [2] (setting [6]), 160%; in test [2] (setting [8]), 154%. The EC50 in test [1] (setting [4]) is 5.26 nM; in test [2] (setting [7]) it was ≤ 4.6 nM.

In the case of `CC(O)CS(=O)(=O)c1ccccc1Oc1ccc(-c2noc(CN3C(=O)N(CCN4CCOCC4)C(C)(C)C3=O)n2)cc1C(F)(F)F` (stereo not drawn) [Compound 52, 3-((3-(4-(2-((2-hydroxypropyl)sulfonyl)phenoxy)-3-(trifluoromethyl)phenyl)-1,2,4-oxadiazol-5-yl)methyl)-5,5-dimethyl-1-(2-morpholinoethyl)imidazolidine-2,4-dione], the Emax in test [1] (setting [3]) was 79.5%; in test [1] (setting [5]), 75.6%; in test [2] (setting [6]), 119%; in test [2] (setting [8]), 114%. Moreover, the EC50 in test [1] (setting [4]) is 2.91 nM; in test [2] (setting [7]) it was ≤ 4.6 nM.

For `O=C1N(Cc2nc(-c3ccc(Oc4ccccc4S(=O)(=O)CC(F)(F)F)c(C(F)(F)F)c3)no2)C(=O)C2(CCN(C3CCC3)CC2)N1CCN1CCOCC1` [Compound 47, 8-cyclobutyl-1-(2-morpholinoethyl)-3-((3-(4-(2-((2,2,2-trifluoroethyl)sulfonyl)phenoxy)-3-(trifluoromethyl)phenyl)-1,2,4-oxadiazol-5-yl)methyl)-1,3,8-triazaspiro[4.5]decane-2,4-dione], the Emax in test [1] (setting [3]) is 80.5%; in test [1] (setting [5]), 76.6%; in test [2] (setting [6]), 147%; in test [2] (setting [8]), 142%. For the same molecule, the EC50 in test [1] (setting [4]) is 0.728 nM; in test [2] (setting [7]), ≤ 4.6 nM.

Turning to `CC(C)CS(=O)(=O)c1ccccc1Oc1ccc(-c2noc(CN3C(=O)N(CCC4(O)CCOCC4)C(C)(C)C3=O)n2)cc1C(F)(F)F` [Compound 6, 1-(2-(4-hydroxytetrahydro-2H-pyran-4-yl)ethyl)-3-((3-(4-(2-(isobutylsulfonyl)phenoxy)-3-(trifluoromethyl)phenyl)-1,2,4-oxadiazol-5-yl)methyl)-5,5-dimethylimidazolidine-2,4-dione], the Emax was found to be 69.8% in test [1] (setting [3]), 66.4% in test [1] (setting [5]), 101% in test [2] (setting [6]) and 96.7% in test [2] (setting [8]). Also, the results for the EC50 in test [1] (setting [4]) and in test [2] (setting [7]) were 43.6 nM and 37.5 nM, respectively.

On to `CC1(C)C(=O)N(Cc2nc(-c3ccc(Oc4ccccc4S(=O)(=O)C4CC(O)C4)c(C(F)(F)F)c3)no2)C(=O)N1CCN1CCOCC1` (stereo not drawn) [Compound 39, 3-((3-(4-(2-((3-hydroxycyclobutyl)sulfonyl)phenoxy)-3-(trifluoromethyl)phenyl)-1,2,4-oxadiazol-5-yl)methyl)-5,5-dimethyl-1-(2-morpholinoethyl)imidazolidine-2,4-dione], for which the Emax was 93.9% in test [1] (setting [3]), 89.3% in test [1] (setting [5]), 170% in test [2] (setting [6]) and 164% in test [2] (setting [8]). Moreover, the EC50 is 1.4 nM in test [1] (setting [4]) and ≤ 4.6 nM in test [2] (setting [7]).

Turning to `CC(C)CS(=O)(=O)c1ccccc1Oc1ccc(-c2noc(CN3C(=O)N(CCN4CCOCC4)C4(CCCCC4)C3=O)n2)cc1C(F)(F)F` [Compound 3, 3-((3-(4-(2-(isobutylsulfonyl)phenoxy)-3-(trifluoromethyl)phenyl)-1,2,4-oxadiazol-5-yl)methyl)-1-(2-morpholinoethyl)-1,3-diazaspiro[4.5]decane-2,4-dione], the Emax in test [1] (setting [3]) was 78.5%; in test [1] (setting [5]) it was 74.7%; in test [2] (setting [6]) it was 117%; in test [2] (setting [8]), 112%. Moreover, the EC50 in test [1] (setting [4]) was 1.24 nM; in test [2] (setting [7]), ≤ 4.6 nM.

On to `CC(C)N(C)S(=O)(=O)c1ccccc1Oc1ccc(-c2noc(CN3C(=O)N(CCN4CCOCC4)C4(CCN(C5CCC5)CC4)C3=O)n2)cc1C(F)(F)F` [Compound 11, 2-(4-(5-((8-cyclobutyl-1-(2-morpholinoethyl)-2,4-dioxo-1,3,8-triazaspiro[4.5]decan-3-yl)methyl)-1,2,4-oxadiazol-3-yl)-2-(trifluoromethyl)phenoxy)-N-isopropyl-N-methylbenzenesulfonamide], for which the Emax came out at 95.9% in test [1] (setting [3]), 91.2% in test [1] (setting [5]), 140% in test [2] (setting [6]) and 134% in test [2] (setting [8]). Besides, the EC50 was 0.058 nM in test [1] (setting [4]) and ≤ 4.6 nM in test [2] (setting [7]).

Consider `CC1(C)NC(=O)N(Cc2nc(-c3ccc(Oc4ccccc4C(F)(F)F)c(C(F)(F)F)c3)no2)C1=O` [Compound 71, 5,5-dimethyl-3-((3-(3-(trifluoromethyl)-4-(2-(trifluoromethyl)phenoxy)phenyl)-1,2,4-oxadiazol-5-yl)methyl)imidazolidine-2,4-dione], for which the Emax in test [1] (setting [3]) was determined as 68.7%; in test [1] (setting [5]) it was 65.3%; in test [2] (setting [6]), 51.9%; in test [2] (setting [8]) it was 49.8%. For the same molecule, the EC50 in test [1] (footnote a: initial dilution for the compound 1:100 in assay medium rather than 1:3 in DMSO) is 139 nM; in test [2] (setting [7]), > 10000 nM.

As for `CC1(C)C(=O)N(Cc2nc(-c3ccc(Oc4ccccc4S(=O)(=O)CC4CCCCO4)c(C(F)(F)F)c3)no2)C(=O)N1CCN1CCOCC1` (stereo not drawn) [Compound 53, 5,5-dimethyl-1-(2-morpholinoethyl)-3-((3-(4-(2-(((tetrahydro-2H-pyran-2-yl)methyl)sulfonyl)phenoxy)-3-(trifluoromethyl)phenyl)-1,2,4-oxadiazol-5-yl)methyl)imidazolidine-2,4-dione], the Emax is 101% in test [1] (setting [3]), 96.2% in test [1] (setting [5]), 146% in test [2] (setting [6]) and 140% in test [2] (setting [8]). The EC50 in test [1] (setting [4]) was 0.264 nM; in test [2] (setting [7]), ≤ 4.6 nM.

As to `CC(C)CS(=O)(=O)c1ccccc1Oc1ccc(-c2noc(CN3C(=O)N(CCN4CCOCC4)C4(CCN(C(=O)CC5CC5)CC4)C3=O)n2)cc1C(F)(F)F` [Compound 28, 8-(2-cyclopropylacetyl)-3-((3-(4-(2-(isobutylsulfonyl)phenoxy)-3-(trifluoromethyl)phenyl)-1,2,4-oxadiazol-5-yl)methyl)-1-(2-morpholinoethyl)-1,3,8-triazaspiro[4.5]decane-2,4-dione], the Emax came out at 74.8% in test [1] (setting [3]), 71.1% in test [1] (setting [5]), 145% in test [2] (setting [6]) and 139% in test [2] (setting [8]). Besides, the EC50 in test [1] (setting [4]) was 0.697 nM; in test [2] (setting [7]) it was ≤ 4.6 nM.
